How the values were obtained:
Assay in all cases: cells
IST-MEL1 = type: functional, cell-based, Homo sapiens; conditions: Homo sapiens, IST-MEL1;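 note: growth inhibition of the cell line, read out with a cell viability assay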
Description: SANGER: Inhibition of human IST-MEL1 cell growth in a cell viability assay.

COR-L88 = type: functional, cell-based; conditions: Homo sapiens;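 note: growth inhibition of COR-L88 cells, read out with a cell viability assay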
Description: SANGER: Inhibition of human COR-L88 cell growth in a cell viability assay.

MLMA = type: functional, cell-based, Homo sapiens; conditions: Homo sapiens, MLMA;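 note: growth inhibition of MLMA cells (human), determined through a cell viability readout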
Description: SANGER: Inhibition of human MLMA cell growth in a cell viability assay.

C32 = type: functional, cell-based, Homo sapiens; conditions: Homo sapiens, C32;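 note: cell viability assay, with IC50 reflecting inhibition of C32 cell growth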
Description: SANGER: Inhibition of human C32 cell growth in a cell viability assay.

HCT-116 = type: functional, cell-based, Homo sapiens; conditions: Homo sapiens, HCT-116
Description: SANGER: Inhibition of human HCT-116 cell growth in a cell viability assay.

Lu-65 = type: functional, cell-based; conditions: Homo sapiens;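 note: growth inhibition of Lu-65 cancer cells, read out by a cell viability assay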
Description: SANGER: Inhibition of human LU-65 cell growth in a cell viability assay.

GMS-10 = type: functional, cell-based, Homo sapiens; conditions: Homo sapiens, GMS-10;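 note: growth inhibition of GMS-10 cells, read out as cell viability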
Description: SANGER: Inhibition of human GMS-10 cell growth in a cell viability assay.

OVCAR-3 = type: functional, cell-based, Homo sapiens; conditions: Homo sapiens, OVCAR-3;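 note: growth inhibition of human OVCAR-3 cells, determined by a cell viability assay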
Description: SANGER: Inhibition of human OVCAR-3 cell growth in a cell viability assay.

EW-11 = type: functional, cell-based, Homo sapiens; conditions: Homo sapiens, EW-11;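 note: growth inhibition of human EW-11 cells, measured with a cell viability assay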
Description: SANGER: Inhibition of human EW-11 cell growth in a cell viability assay.

MIA PaCa-2 = type: functional, cell-based, Homo sapiens; conditions: Homo sapiens, MIA PaCa-2;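 note: growth inhibition of MIA PaCa-2 cells, read out with a cell viability assay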
Description: SANGER: Inhibition of human MIA-PaCa-2 cell growth in a cell viability assay.

HMV-2 cell line = type: functional, cell-based, Homo sapiens; conditions: Homo sapiens, HMV-2;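 note: growth inhibition of HMV-II cells, read out with a cell viability assay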
Description: SANGER: Inhibition of human HMV-II cell growth in a cell viability assay.

QIMR-WIL = type: functional, cell-based; conditions: Homo sapiens;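 note: growth inhibition of QIMR-WIL cells, read out with a cell viability assay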
Description: SANGER: Inhibition of human QIMR-WIL cell growth in a cell viability assay.

KINGS-1 = type: functional, cell-based, Homo sapiens; conditions: Homo sapiens, KINGS-1;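 note: cell viability assay measuring suppression of KINGS-1 cell growth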
Description: SANGER: Inhibition of human KINGS-1 cell growth in a cell viability assay.

SW756 = type: functional, cell-based, Homo sapiens; conditions: Homo sapiens, SW756;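 note: growth inhibition of human SW756 cells, read out with a cell viability assay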
Description: SANGER: Inhibition of human SW756 cell growth in a cell viability assay.

NCI-H596 = type: functional, cell-based, Homo sapiens; conditions: Homo sapiens, NCI-H596;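 note: growth inhibition of NCI-H596 cells, read out with a cell viability assay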
Description: SANGER: Inhibition of human NCI-H596 cell growth in a cell viability assay.

NCI-H2228 = type: functional, cell-based, Homo sapiens; conditions: Homo sapiens, NCI-H2228;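 note: growth inhibition of human NCI-H2228 cells, read out by a cell viability assay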
Description: SANGER: Inhibition of human NCI-H2228 cell growth in a cell viability assay.

VA-ES-BJ = type: functional, cell-based, Homo sapiens; conditions: Homo sapiens, VA-ES-BJ;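 note: growth inhibition of the VA-ES-BJ cell line, read out by a cell viability assay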
Description: SANGER: Inhibition of human VA-ES-BJ cell growth in a cell viability assay.

DOK = type: functional, cell-based, Homo sapiens; conditions: Homo sapiens, DOK;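 note: cell viability assay read-out, values reflect inhibition of cell growth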
Description: SANGER: Inhibition of human DOK cell growth in a cell viability assay.

LN-405 = type: functional, cell-based, Homo sapiens; conditions: Homo sapiens, LN-405
Description: SANGER: Inhibition of human LN-405 cell growth in a cell viability assay.

TGBC1TKB = type: functional, cell-based, Homo sapiens; conditions: Homo sapiens, TGBC1TKB;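 note: growth inhibition of TGBC1TKB cells, read out by a cell viability assay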
Description: SANGER: Inhibition of human TGBC1TKB cell growth in a cell viability assay.

UACC-257 = type: functional, cell-based, Homo sapiens; conditions: Homo sapiens, UACC-257
Description: SANGER: Inhibition of human UACC-257 cell growth in a cell viability assay.

NCI-N87 = type: functional, cell-based, Homo sapiens; conditions: Homo sapiens, NCI-N87;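 note: growth inhibition of human NCI-N87 cells, read out with a cell viability assay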
Description: SANGER: Inhibition of human NCI-N87 cell growth in a cell viability assay.

NCI-H1793 = type: functional, cell-based, Homo sapiens; conditions: Homo sapiens, NCI-H1793;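 note: cell growth inhibition, read out by a cell viability assay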
Description: SANGER: Inhibition of human NCI-H1793 cell growth in a cell viability assay.

SiHa = type: functional, cell-based, Homo sapiens; conditions: Homo sapiens, SiHa;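 note: Viability-based readout of growth inhibition in SiHa cells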
Description: SANGER: Inhibition of human SiHa cell growth in a cell viability assay.

Ca-Ski = type: functional, cell-based; conditions: Homo sapiens;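 note: cell viability assay measuring inhibition of Ca-Ski cell growth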
Description: SANGER: Inhibition of human Ca-Ski cell growth in a cell viability assay.

NCI-H69 = type: functional, cell-based; conditions: Homo sapiens;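 note: growth inhibition of the cell line, read out with a cell viability assay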
Description: SANGER: Inhibition of human NCI-H69 cell growth in a cell viability assay.

SF-126 = type: functional, cell-based, Homo sapiens; conditions: Homo sapiens, SF-126;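 note: growth inhibition of human SF126 cells, read out with a cell viability assay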
Description: SANGER: Inhibition of human SF126 cell growth in a cell viability assay.

SW1990 = type: functional, cell-based, Homo sapiens; conditions: Homo sapiens, SW1990;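 note: cell growth inhibition determined with a viability assay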
Description: SANGER: Inhibition of human SW1990 cell growth in a cell viability assay.

Huh-7 = type: functional, cell-based, Homo sapiens; conditions: Homo sapiens, Huh-7;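 note: HuH-7 cell growth inhibition, read out with a cell viability assay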
Description: SANGER: Inhibition of human HuH-7 cell growth in a cell viability assay.

NCI-H810 = type: functional, cell-based, Homo sapiens; conditions: Homo sapiens, NCI-H810;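 note: IC50 reflects inhibition of cancer cell line growth, read out with a cell viability assay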
Description: SANGER: Inhibition of human NCI-H810 cell growth in a cell viability assay.

SW684 = type: functional, cell-based, Homo sapiens; conditions: Homo sapiens, SW684;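 note: growth inhibition of human SW684 cells, measured by a cell viability assay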
Description: SANGER: Inhibition of human SW684 cell growth in a cell viability assay.

HCC 2998 = type: functional, cell-based, Homo sapiens; conditions: Homo sapiens, HCC 2998;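 note: growth inhibition of human HCC2998 cells, measured with a cell viability read-out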
Description: SANGER: Inhibition of human HCC2998 cell growth in a cell viability assay.

IGR-1 = type: functional, cell-based, Homo sapiens; conditions: Homo sapiens, IGR-1;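 note: growth inhibition of human IGR-1 cells, read out with a cell viability assay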
Description: SANGER: Inhibition of human IGR-1 cell growth in a cell viability assay.

GI-ME-N = type: functional, cell-based, Homo sapiens; conditions: Homo sapiens, GI-ME-N;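 note: growth inhibition of human GI-ME-N cells, read out with a cell viability assay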
Description: SANGER: Inhibition of human GI-ME-N cell growth in a cell viability assay.

BFTC-909 = type: functional, cell-based, Homo sapiens; conditions: Homo sapiens, BFTC-909
Description: SANGER: Inhibition of human BFTC-909 cell growth in a cell viability assay.

KYSE-450 = type: functional, cell-based; conditions: Homo sapiens;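 note: cell growth inhibition measured by a viability assay in human KYSE-450 cells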
Description: SANGER: Inhibition of human KYSE-450 cell growth in a cell viability assay.

DMS-273 = type: functional, cell-based, Homo sapiens; conditions: Homo sapiens, DMS-273
Description: SANGER: Inhibition of human DMS-273 cell growth in a cell viability assay.

GT3TKB = type: functional, cell-based, Homo sapiens; conditions: Homo sapiens, GT3TKB;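 note: growth inhibition of the cell line, read out with a cell viability assay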
Description: SANGER: Inhibition of human GT3TKB cell growth in a cell viability assay.

NB69 = type: functional, cell-based, Homo sapiens; conditions: Homo sapiens, NB69;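 note: growth inhibition of NB69 cells, determined by a cell viability assay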
Description: SANGER: Inhibition of human NB69 cell growth in a cell viability assay.

5637 = type: functional, cell-based, Homo sapiens; conditions: Homo sapiens
Description: SANGER: Inhibition of human 5637 cell growth in a cell viability assay.

CHP-212 = type: functional, cell-based, Homo sapiens; conditions: Homo sapiens, CHP-212
Description: SANGER: Inhibition of human CHP-212 cell growth in a cell viability assay.

NCI-H1792 = type: functional, cell-based, Homo sapiens; conditions: Homo sapiens, NCI-H1792;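 note: growth inhibition of human NCI-H1792 cells, read out as cell viability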
Description: SANGER: Inhibition of human NCI-H1792 cell growth in a cell viability assay.

NCI-H1395 = type: functional, cell-based, Homo sapiens; conditions: Homo sapiens, NCI-H1395;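 note: cell viability assay read-out quantifying reduced proliferation of human NCI-H1395 cells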
Description: SANGER: Inhibition of human NCI-H1395 cell growth in a cell viability assay.

IST-MES1 = type: functional, cell-based, Homo sapiens; conditions: Homo sapiens, IST-MES1;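 note: growth inhibition of IST-MES1 cells, measured with a cell viability assay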
Description: SANGER: Inhibition of human IST-MES1 cell growth in a cell viability assay.

NCI-H2122 = type: functional, cell-based, Homo sapiens; conditions: Homo sapiens, NCI-H2122;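 note: growth inhibition of the cells, read out with a cell viability assay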
Description: SANGER: Inhibition of human NCI-H2122 cell growth in a cell viability assay.

LCLC-103H cell line = type: functional, cell-based, Homo sapiens; conditions: Homo sapiens, LCLC-103H
Description: SANGER: Inhibition of human LCLC-103H cell growth in a cell viability assay.

Ca9-22 = type: functional, cell-based, Homo sapiens; conditions: Homo sapiens, Ca9-22;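 note: growth inhibition of Ca9-22 cells, read out with a cell viability assay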
Description: SANGER: Inhibition of human Ca9-22 cell growth in a cell viability assay.

DU-145 = type: functional, cell-based, Homo sapiens; conditions: Homo sapiens, DU-145
Description: SANGER: Inhibition of human DU-145 cell growth in a cell viability assay.

OMC-1 = type: functional, cell-based, Homo sapiens; conditions: Homo sapiens, OMC-1;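 note: growth inhibition of the OMC-1 cell line, measured by a cell viability assay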
Description: SANGER: Inhibition of human OMC-1 cell growth in a cell viability assay.

For O=C(NOCC1CC1)c1ccc(F)c(F)c1Nc1ccc(I)cc1Cl [CI-1040], the IC50 (IST-MEL1) was 8000 nM, the IC50 (COR-L88) was over 10000 nM and the IC50 (MLMA) was over 10000 nM. The IC50 (C32) was 191 nM, the IC50 (HCT-116) was 6810 nM and the IC50 (Lu-65) was over 10000 nM. It also gave an IC50 (GMS-10) of over 10000 nM, an IC50 (OVCAR-3) of over 10000 nM and an IC50 (EW-11) of over 10000 nM. The IC50 (MIA PaCa-2) was 3010 nM, the IC50 (HMV-2 cell line) was 645 nM and the IC50 (QIMR-WIL) was over 10000 nM. For the same compound, the IC50 (KINGS-1) was over 10000 nM, the IC50 (SW756) was over 10000 nM and the IC50 (NCI-H596) was over 10000 nM. The IC50 (NCI-H2228) was over 10000 nM, the IC50 (VA-ES-BJ) was over 10000 nM and the IC50 (DOK) was 2360 nM. It also gave an IC50 (LN-405) of over 10000 nM, an IC50 (TGBC1TKB) of 7890 nM and an IC50 (UACC-257) of 965 nM. The IC50 (NCI-N87) was over 10000 nM, the IC50 (NCI-H1793) was over 10000 nM and the IC50 (SiHa) was over 10000 nM. It also gave an IC50 (Ca-Ski) of over 10000 nM, an IC50 (NCI-H69) of over 10000 nM and an IC50 (SF-126) of over 10000 nM. It also gave an IC50 (SW1990) of over 10000 nM, an IC50 (Huh-7) of 5270 nM and an IC50 (NCI-H810) of over 10000 nM. The IC50 (SW684) was over 10000 nM, the IC50 (HCC 2998) was 5490 nM and the IC50 (IGR-1) was over 10000 nM. For the same compound, the IC50 (GI-ME-N) was over 10000 nM, the IC50 (BFTC-909) was over 10000 nM and the IC50 (KYSE-450) was over 10000 nM. For the same compound, the IC50 (DMS-273) was over 10000 nM, the IC50 (GT3TKB) was 5470 nM and the IC50 (NB69) was 1780 nM. For the same compound, the IC50 5637 was over 10000 nM, the IC50 (CHP-212) was 28.9 nM and the IC50 (NCI-H1792) was 9450 nM. The IC50 (NCI-H1395) was over 10000 nM, the IC50 (IST-MES1) was over 10000 nM and the IC50 (NCI-H2122) was 6620 nM. For the same compound, the IC50 (LCLC-103H cell line) was over 10000 nM, the IC50 (Ca9-22) was 2970 nM and the IC50 (DU-145) was over 10000 nM.

In the case of Nc1ccn([C@@H]2O[C@H](CO)[C@@H](O)[C@@H]2O)c(=O)n1 [CYTARABINE], the IC50 (IST-MEL1) is reported as 381 nM, the IC50 (COR-L88) is reported as over 2000 nM and the IC50 (MLMA) is reported as 55.5 nM. It also gave an IC50 (C32) of over 2000 nM, an IC50 (HCT-116) of 245 nM and an IC50 (Lu-65) of over 2000 nM. It also gave an IC50 (GMS-10) of 396 nM, an IC50 (OMC-1) of 832 nM and an IC50 (OVCAR-3) of over 2000 nM. For the same compound, the IC50 (MIA PaCa-2) was 1490 nM, the IC50 (HMV-2 cell line) was 124 nM and the IC50 (QIMR-WIL) was over 2000 nM. It also gave an IC50 (KINGS-1) of over 2000 nM, an IC50 (SW756) of 719 nM and an IC50 (NCI-H596) of over 2000 nM. For the same compound, the IC50 (NCI-H2228) was 597 nM, the IC50 (VA-ES-BJ) was 71.7 nM and the IC50 (DOK) was 904 nM. For the same compound, the IC50 (LN-405) was over 2000 nM, the IC50 (TGBC1TKB) was over 2000 nM and the IC50 (UACC-257) was over 2000 nM. For the same compound, the IC50 (NCI-N87) was over 2000 nM, the IC50 (NCI-H1793) was over 2000 nM and the IC50 (SiHa) was 856 nM. The IC50 (Ca-Ski) was over 2000 nM, the IC50 (NCI-H69) was over 2000 nM and the IC50 (SF-126) was 693 nM. The IC50 (SW1990) was over 2000 nM, the IC50 (Huh-7) was over 2000 nM and the IC50 (NCI-H810) was over 2000 nM. For the same compound, the IC50 (SW684) was over 2000 nM, the IC50 (HCC 2998) was over 2000 nM and the IC50 (IGR-1) was 1780 nM. For the same compound, the IC50 (GI-ME-N) was 1660 nM, the IC50 (BFTC-909) was 357 nM and the IC50 (KYSE-450) was 1090 nM. It also gave an IC50 (DMS-273) of 1460 nM, an IC50 (GT3TKB) of 341 nM and an IC50 (NB69) of 79.5 nM. The IC50 5637 was 501 nM, the IC50 (CHP-212) was 33.5 nM and the IC50 (NCI-H1792) was 1420 nM. For the same compound, the IC50 (NCI-H1395) was over 2000 nM, the IC50 (IST-MES1) was over 2000 nM and the IC50 (NCI-H2122) was 430 nM. For the same compound, the IC50 (LCLC-103H cell line) was over 2000 nM, the IC50 (Ca9-22) was 321 nM and the IC50 (DU-145) was over 2000 nM.
